Measured values published in patent publication EP0301034B1, “USE OF 1-(3'TRIFLUOROMETHYL 4'-NITROPHENYL) 4,4-DIMETHYL IMIDAZOLINE 2, 5-DIONE IN THE MANUFACTURE OF A MEDICAMENT FOR THE TREATMENT OF HORMONE-DEPENDENT CANCERS OTHER THAN CANCERS OF THE PROSTATE, THE SKIN AND THE COLON” (ROUSSEL-UCLAF, priority 1986, dated 1988).

How the values were obtained:
[1] = system: cellules tumorales mammaires MCF-7; experiment: Antiproliferative activity on growth of MCF-7 mammary tumour cells (DNA assay with DABA fluorimetry); format: cell-based; conditions: 10⁻⁵M; end of experiment J6; SVF medium; inhibition of DNA increase
Experimental: (§1) L'activité de la 1-(3'-trifluorométhyl 4'-nitrophényl) 4,4-diméthyl imidazoline 2,5-dione a été déterminée par la mesure de son activité antiproliférative sur la croissance de cellules tumorales mammaires MCF-7 et T 47-D.
(§2) Les lignées MCF-7 et T 47-D sont maintenues en culture en milieu SVF (1) à 37 °C en atmosphère humide contenant 5% CO₂. Les cellules à subconfluence sont récoltées par trypsination (trypsine 0,05%, EDTA 0,02%) puis rincées par centrifugation douce. Un échantillon des cellules en suspension est compté sur cellule de Malassez.
(§3) Les cellules resuspendues dans le milieu SVF sont ensemencées à raison de 30.000 cellules par puits dans des plaques multipuits (24 puits de 2,5 cm2). […]
(§4) L'ADN est dosé par une méthode fluorimétrique utilisant le DABA (Acide 3,5 diaminobenzoïque) (2) 150 microlitres de DABA sont ajoutés dans chaque puits; les plaques sont alors incubées 45 mn à 56°C, puis 1,5 ml d'HCl 1N sont ajoutés. La fluorescence est mesurée à l'aide de fluorimètre (longueur excitatrice : 400 nm, longueur d'onde d'émission : 500 nm). La quantité d'ADN par puits est évaluée par rapport à une gamme étalon obtenue en traitant dans les mêmes conditions un standard d'ADN du thymus de veau.

[2] = system: cellules tumorales mammaires T 47-D; experiment: Antiproliferative activity on growth of T 47-D mammary tumour cells (DNA assay with DABA fluorimetry); format: cell-based; conditions: 10⁻⁵M; end of experiment J12; SVF medium; inhibition of DNA increase
Experimental: as §1, §2, §3, §4

CC1(C)NC(=O)N(c2ccc([N+](=O)[O-])c(C(F)(F)F)c2)C1=O [1-(3'trifluorométhyl 4'-nitrophényl) 4,4-diméthyl imidazoline 2,5-dione]
inhibe la croissance des cellules MCF-7 [1]: 30% | inhibe la croissance des cellules T 47-D [2]: 30%
